Test results as given in article PMC10324399, “New Radiolabeled Exendin Analogues Show Reduced Renal Retention” (Molecular Pharmaceutics, 2023).

Legend:
[1] = Serum stability of 68Ga- and 177Lu-labeled exendin-4 analogues in human serum; assay type: in vitro ADME; settings: ^177Lu-labeled peptide, human serum (1:10), 37 °C, after 24 h, acetonitrile precipitation, RP-HPLC
Method: Serum stability was analyzed as described in the Supporting Information.
The radiolabeled compounds were incubated in
10 human serum (1:10) at 37°C and samples were taken after 1 and 2 hour incubation for the 68Ga-labeled
12 Supernatant was obtained by precipitating the serum proteins by adding a 1:1 (v/v) volume of
13 acetonitrile, followed by centrifugation for 5 min at 3220xg. Subsequently, the supernatant was
14 analyzed using RP-HPLC. RP-HPLC was performed as described in the main text.

[2] = Dosimetry: kidney self-dose in mice (OLINDA/EXM, 25 g RADAR model); design: species or system mouse
Method: The kidney self-dose was calculated based on the activity distribution of the tracer in the kidneys. Time-integrated activity coefficients (MBq-h/MBq) were calculated using mono-exponential curve-fitting between the timepoints.

[3] = Dosimetry: absorbed kidney dose extrapolated to humans (OLINDA/EXM, 80 kg male reference model); design: species or system human; settings: radiolabeled tracer (^68Ga or ^177Lu), extrapolated from mice data
Source text: The mice data were then used to extrapolate the expected absorbed kidney doses per injected activity to humans using the equation:[25],[26] [drawing 1] with [drawing 2] the percentage of the injected activity concentration, [drawing 3] the percentage of the injected activity per organ, m the organ mass, and M the total human or mouse body weight.

[4] = co-administration; cited from earlier work
Source text: Several successful strategies to reduce the renal uptake of radiolabeled peptides have been described. […]. […] These two studies evoked the question whether the translation of the methionine–isoleucine linker to exendin-4 could help to reduce the renal uptake of exendin. Based on literature, the additio ...

serum stability [1] [% after 24 h]	reduction of estimated absorbed kidney dose vs reference without MI linker ([2]; in both mice and humans) [%]	estimated absorbed kidney dose per injected activity, mice ([2]; radiolabeled tracer (^68Ga or ^177Lu), from biodistribution in INS-1 tumor-bearing mice, OLINDA/EXM 2.1, 25 g RADAR model) [mSv/MBq]	estimated absorbed kidney dose per injected activity, humans [3] [mSv/MBq]	Compound	increase in renal uptake of radiolabeled exendin [4] [%]
>80	57	1974	0.89	Lys^40[Mep((S-)DOTA-Met-Ile-Mal-)]exendin-4 [DOTA-MI-exendin-4]	
				NCCCC[C@H](N)C(=O)O [lysine]	6
